Measurements taken from patent publication US20250144049A1, “METHODS, COMPOSITIONS, AND USES RELATED TO THE TREATMENT AND PREVENTION OF LEIGH SYNDROME” (Stealth BioTherapeutics Inc., priority 2023, published 2025).

Columns and labels:
[1] = system: rotenone-inhibited Complex I; test: Complex I-bypass assay (high-resolution respirometry, O2 consumption); format: cell-based, human; settings: concentrations from 125 nM to 8 μM
Experimental: All high-resolution respirometry experiments were conducted using the Oroboros O2k-Fluorespirometer (Oroboros, Innsbruck, Austria). The Oroboros O2k-Fluorespirometer was calibrated daily using the air calibration protocol on DatLab 7.4 (Oroboros, Innsbruck, Austria). Prior to each experiment requiring the fluorescence module, the AmpR calibration protocol from DatLab 7.4 was used to calibrate the fluorescence signal. Initial data analysis, including setting of marks, was performed using DatLab 7.4.
Complex I-bypass activity was assessed using HRR to measure O2 consumption. […] Values were exported and analyzed using GraphPad Prism 9. […]
Statistical analysis was performed using GraphPad Prism 9. […] RET Assay data were analyzed by 2-way ANOVA using a p-value of 0.05.
Using this assay, the ability of Compounds 1 to 4 and Vatiquinone to bypass rotenone-inhibited Complex I was determined. […] The ability of Compounds 1 to 4 and Vatiquinone to “bypass” Complex I and restore OXPHOS is measured by an increase in oxygen consumption rate following addition of the compound to the chamber.
In executing this assay, in each instance, fibroblasts are added to each chamber of the Oroboros Oxygraph-2K (the “O2k”). […] The addition of rotenone is expected to cause a marked reduction of OXPHOS as measured by a decreased rate of oxygen consumption. […]

[2] = system: Healthy (GM08402) fibroblasts; test: RSL3 cytoprotection assay, healthy fibroblasts; format: cell-based, human; settings: 1 μM RSL3, 4 hours, FIG. 8
Experimental: (§1) Patient fibroblasts were acquired from Coriell Institute for Medical Research (Camden, NJ, USA). GM03672 is an untransformed fibroblast cell line from a Leigh syndrome patient carrying an unknown mutation. GM08402 is an untransformed fibroblast from an apparently healthy individual. Cells were cultured at 37° C. at 5% CO2 in Eagle's Minimum Essential Medium (MEM, Corning), which was supplemented with Earle's salts and non-essential amino acids, 15% qualified fetal bovine serum, and 1% penicillin/streptomycin ([…]) to yield “Complete MEM.”
(§2) To initiate the RSL3 cytoprotection experiment, Healthy (GM08402) and Leigh syndrome (GM03672) fibroblasts were resuspended in Complete MEM. Cells were seeded at 10,000 cells per well in a clear, tissue cultured-treated, 96-well plate and incubated at 37° C. overnight. Following the incubation, supernatant was manually aspirated, taking care not to disrupt cells. […]. Luminescence units were quantified by GEN5 software on a BioTek SYNERGY neo2 plate reader (LUM filter).
(§3) RSL3 is an inhibitor of the enzyme glutathione peroxidase 4 (GPX4), which decreases lipid peroxides. RSL3 inhibition of GPX4 induces ferroptosis through iron-dependent accumulation of lipid ROS. In this assay, Healthy or Leigh fibroblasts were treated for 4 hours with RSL3 to induce ferroptosis or left untreated. Endogenous ATP levels were measured as an indicator of cellular viability using a commercially available kit (CellTiter-Glo® 2.0 Cell Viability Assay (Promega)).
(§4) […]. […] Briefly, ferroptosis was induced with 1 μM RSL3 in healthy fibroblast cells and 375 nM RSL3 in fibroblasts from a patient with Leigh syndrome.
(§5) A preliminary experiment was performed to determine the effect of RSL3 injury on the fibroblasts of a healthy individual (cell line: GM08402) and the fibroblasts of a patient diagnosed with Leigh syndrome (cell line: GM03672).

[3] = system: Leigh syndrome (GM03672) fibroblasts; test: RSL3 cytoprotection assay, Leigh fibroblasts; format: cell-based, human; settings: FIG. 9
Experimental: as §1, §2, §3, §4, §5

[4] = system: Healthy (GM08402) fibroblasts; test: Erastin cytoprotection assay, healthy fibroblasts; format: cell-based, human; settings: 24 hours
Experimental: (§6) Briefly, Healthy (GM08402) or Leigh (GM03672) fibroblasts were resuspended in assay medium, seeded at 10,000 cells per well in a clear, tissue cultured-treated, 96-well plate, and incubated at 37° C. overnight. Following the incubation, supernatant was manually aspirated from wells, taking care not to disrupt cells. Fibroblasts were co-treated in a final volume of 100 μL with 2 μM erastin (Millipore Corp., Cat #), 250 μM ferric ammonium citrate (FAC), 50 µM ascorbic acid (AA), and a titration of one of each of Compounds 1 to 4 or Vatiquinone ranging from 10 to 1000 nM. Following another 24-hour incubation at 37° C., cell viability was measured using the CellTiter-Glo Luminescent Cell Viability Kit (ProMega) per Manufacturer's instructions. Luminescence units were quantified by GEN5 software on a BioTek SYNERGY neo2 plate reader (LUM filter).
(§7) Briefly, erastin, like RSL3, is known to induce ferroptosis. […] Erastin was incubated with cell fibroblasts for 24 hours to induce ferroptosis. Cells were co-treated with each of Compounds 1 to 4, or Vatiquinone as the test articles. Test articles were administered at a range of concentrations to derive a curve. Cell viability was determined using a commercially available kit that measures ATP production. […] An increase in cell viability as determined by the assay is considered to be protective against ferroptosis.

[5] = system: Leigh (GM03672) fibroblasts; test: Erastin cytoprotection assay, Leigh fibroblasts; format: cell-based, human; settings: 24 hours
Experimental: as §6, §7

[6] = tested in the clinic; cited from earlier work
[7] = pontocerebellar hypoplasia type 6, Kahn-Kirby et al.; cited from earlier work
[8] = 2 μM erastin + FAC + AA, compound 10-1000 nM

With `CC(C)=CCC/C(C)=C/CC/C(C)=C/CC[C@@](C)(O)CCC1=C(C)C(=O)C(C)=C(C)C1=O` [Vatiquinone, reference compound] the “Complex I by-pass activity” value [1] was “inactive”, the “anti-ferroptosis properties compared among test articles” value [2] was “roughly equivalent” and the “protective effect against RSL3 induced ferroptosis (cell viability, ATP)” value ([2]; compound 10-1000 nM) was “protective effect”. The “protective effect against RSL3 induced ferroptosis (cell viability, ATP)” value ([3]; 375 nM RSL3, 4 hours, compound 10-1000 nM) was “protective effect”, the “anti-ferroptosis properties compared among test articles” value ([3]; RSL3, 4 hours) was “roughly equivalent” and the “protective effect against erastin induced ferroptosis (cell viability, ATP)” value [4, 8] was “protective effect”. For the same molecule, the “protective effect compared among test articles” value ([4]; 2 μM erastin, FIG. 12) was “about equally protective”, the “protective effect against erastin induced ferroptosis (cell viability, ATP)” value [5, 8] was “protective effect” and the “protective effect compared among test articles” value ([5]; 2 μM erastin, FIG. 13) was “superior in its protective effect as compared with Compounds 1 and 4”. For the same molecule, the “clinical results in Leigh syndrome” value [6] was “disappointing” and the “seizure frequency and morbidity” value [7] was “decrease seizure frequency and morbidity”.
